Data as given in paper PMC5952519, “Screening a repurposing library, the Medicines for Malaria Venture Stasis Box, against Schistosoma mansoni” (Parasites & Vectors, 2018).
Entries after “also recorded” stand apart in the source; their conditions may differ. Read-outs that look alike come from different tables or passages of the source.

How the values were obtained:
[1] = Cytotoxicity assay on L6 cells (resazurin / Alamar Blue); assay type: cell-based; conditions: rat
Protocol: Rat skeletal myoblast L6 cells (2 × 10^4 cells/ml) were exposed to serial dilutions of the 11 lead compounds (1:3, range: 0.37–90 μM). Podophyllotoxin (PPT, 1:3, range: 2 × 10^-4 –0.05 μg/ml) was used as a positive control. After a 72-hour incubation, resazurin dye (Alamar Blue) was added to the plates. […] Each drug was tested in duplicate and each assay was repeated once.
(§1) For in vitro assays, the average viability scores between replicates (or individual adult worms) were normalised to the controls and converted into percentage activity (or effect). Drug IC50 values (for NTS or adult worms) were calculated by computing different dose-effect values using CompuSyn2 software (ComboSyn Inc., 2007). The linear correlation coefficient (r) reflects the experimental fit. In this study, r-values > 0.70 were considered acceptable. […] The selectivity index (SI) of each drug was calculated by dividing the CC50 measured on the L6 cells by the IC50 measured on the parasites. For in vivo studies, as previously described, the worm burden reduction [%] was determined by comparing the worm burden of treated and untreated mice. For statistical significance a Kruskal-Wallis test was employed (R version 3.2.2).

MRC5 cells = conditions: read-out: MRC5 cells CC50; ref provided by MMV; cited from earlier work
adult S. mansoni [2] = experiment: In vitro assay on adult S. mansoni worms, viability scoring by microscopy; assay type: cell-based; conditions: Schistosoma mansoni, read-out: Adult IC50
Description: (§2) The S. mansoni (Liberian strain) life-cycle, is maintained in-house at the Swiss Tropical and Public Health Institute (Swiss TPH), as described before. Biomphalaria glabrata were infected with 6 to 8 S. mansoni miracidia. They were kept in pond water under natural light, temperature and humidity conditions until the infectious stage, the cercariae, started to shed. The cercariae were mechanically transformed to schistosomula, the NTS, using a procedure adapted from Milligan & Jolly. NTS were incubated (37 °C, 5% CO2) until use for 12 to maximum 24 h in M199 medium supplemented with FCS and antibiotics. Adult S. mansoni of both sexes were collected by dissecting the intestinal veins of mice euthanized 7 weeks post-infection. All the adult worms recovered were incubated for maximum one week until use in RPMI medium supplemented with FCS and penicillin-streptomycin.
(§3) Hit compounds identified on NTS progressed into testing on adult worms. Females, males and pairs (3 to 5 worms per well) were exposed to the drug dilution in supplemented RPMI medium. The assays were performed in duplicate in 24-wells plates (Eppendorf AG, Hamburg, Germany). […] Each IC50 assay was repeated once. These assays were repeated for the lead compounds in presence of albumin (BSA) at the human physiological concentration of 45 g/l (AlbuMAX II, Gibco). For all in vitro assays (NTS and adults), negative controls containing the highest concentration of DMSO were included. Worms incubated with praziquantel served as positive controls. The parasites were evaluated under an inverted optical microscope over 3 days after drug exposure. Their movement and morphology were assessed and scored as described previously.
as §1, with “Drug IC50 values (for NTS or adult worms) were calculated by computing different dose-effect values using CompuSyn2 software (ComboSyn Inc., 2007).” left out

[3] = system: newly transformed schistosomula (NTS) of Schistosoma mansoni; experiment: In vitro assay on newly transformed schistosomula (NTS), viability scoring by microscopy; assay type: cell-based
Description: as §2
For in vitro screening on NTS, the parasite suspension was adjusted to 50 NTS/100 μl in supplemented M199 medium and added to the drug dilutions in 96-wells plates (Eppendorf AG, Hamburg, Germany). NTS were initially exposed to a drug concentration of 10 μM (0.1% DMSO). Each drug was tested in duplicate.
as §3, with “Germany). […] Each assay on NTS was performed in triplicate with serial drug dilutions (1:2, range: 10–0.16 μM) and repeated once.” for “Germany).”
as §1

adult S. mansoni [4] = experiment: In vitro assay on adult S. mansoni worms in albumin-enriched medium (45 g/l); assay type: cell-based; conditions: Schistosoma mansoni, read-out: Adult IC50 with albumin
Protocol: as §3
as §1, with “Drug IC50 values (for NTS or adult worms) were calculated by computing different dose-effect values using CompuSyn2 software (ComboSyn Inc., 2007).” left out

S. mansoni = experiment: In vivo efficacy in mice harbouring a chronic S. mansoni infection (worm burden); parameters: species or system Schistosoma mansoni; conditions: for inhibition in vivo at 200 mg/kg: Schistosoma mansoni
Protocol: (§4) Three weeks old NMRI female mice were used (Charles Rivers, Germany) for in vivo drug efficacy studies. The animals were kept in groups of ten with constant access to food and water. After one week of habituation, mice were sub-cutaneously injected a suspension containing 100 S. mansoni cercariae in phosphate-buffered saline (PBS). The drugs (200 mg/kg single dose) were administered seven weeks post-infection by oral gavage to groups of 4 mice. They were dissolved in tap water with Tween80/ethanol (10%, 70:30). Untreated mice (n = 10) served as control and were dissected 7 weeks post-infection. Treated mice (n = 40) were euthanized with CO2 and dissected between 16 to 18 days post-drug administration. The worms were then collected, sexed and counted.
as §1

[5] = Survival of treated infected mice in the in vivo study; conditions: single 200 mg/kg oral dose
Protocol: as §4
Eight compounds had no effect on the worm burden in infected mice (worm burden reduction < 36%).

[6] = 72-hour incubation, read-out: L6 cells CC50
[7] = Schistosoma mansoni, 24 h; read-out: NTS IC50
[8] = Schistosoma mansoni, 48 h; read-out: NTS IC50
[9] = mice, single 200 mg/kg oral dose, 49-day-old adult infection, read-out: WBR (worm burden reduction)
[10] = mice, single 200 mg/kg oral dose, 49-day-old adult infection
[11] = po, read-out: WBR (worm burden reduction), mice, single 200 mg/kg oral dose, 49-day-old adult infection

| SMILES | CC50 at 72 h [1, 6] [µM] | CC50 (MRC5 cells) [µM] | IC50 (adult S. mansoni [2]; 24 h, standard medium) [µM] | IC50 (adult S. mansoni [2]; 48 h, standard medium) [µM] | IC50 [3, 7] [µM] | IC50 [3, 8] [µM] | CC50 at 72 h [1] [µM] | IC50 (adult S. mansoni [4]; 24 h, albumin 45 g/l) [µM] | IC50 (adult S. mansoni [4]; 72 h, albumin 45 g/l) [µM] | inhibition in vivo at 200 mg/kg (S. mansoni; [9]) [%] | Mean worm burden ± SD (S. mansoni; [10]) | IC50 (adult S. mansoni [4]; 48 h, albumin 45 g/l) [µM] | also measured |
| --- | --- | --- | --- | --- | --- | --- | --- | --- | --- | --- | --- | --- | --- |
| Nc1nc2ccc(Cl)cc2c2nc(-c3ccco3)nn12 [MMV001539] | 2.9 | 16 | 28.2 | 12.3 | 12.7 | 11 | – | – | – | – | – | – | – |
| COc1ccc(NC(=O)c2ccc(-c3ccc(-c4noc(C)n4)cc3C)cc2)cc1N1CCN(C)CC1 [MMV003452] | – | 1.9 | 1.7 | 3 | 4.4 | 2.2 | 3.7 | 22.6 | 7.5 | 12.2 | 40.5 ± 17.2 | – | – |
| O=C(O)Cc1cccc(OCCCN(Cc2cccc(C(F)(F)F)c2Cl)CC(c2ccccc2)c2ccccc2)c1 [MMV690466] | 1.6 | 8.4 | 2.9 | 2.3 | 14.6 | 3.8 | – | 18.1 | 47.6 | 35.9 | 10.3 ± 6.9 | 89.7 | effect on NTS at 10 μM ([3]; 10 μM, 48 h): high effect; also recorded: high activity |
| Fc1ccc(Cl)cc1-c1nc(Nc2ccncc2)c2nccnc2n1 [MMV690534] | – | 12.4 | – | – | – | – | – | – | – | – | 7.8 ± 7.5 | – | CC50 at 72 h ([1]; L6 skeletal myoblast cells, 72-hour incubation, read-out: L6 cells CC50): 74.5 µM; IC50 (adult S. mansoni [2]; 24 h): 17.4 µM; IC50 (adult S. mansoni [2]; 48 h): 19.3 µM; inhibition in vivo at 200 mg/kg (S. mansoni; [11]): > 50%; IC50 ([3]; Schistosoma mansoni, 24 h, read-out: NTS IC50): 11.8 µM; IC50 ([3]; Schistosoma mansoni, 48 h, read-out: NTS IC50): 14.3 µM |
| CC(C)(Cc1c[nH]c2ccc(Cl)cc12)NCCOc1ccccc1OCC1CC1 [MMV690599] | 3.4 | 2 | – | – | 10.5 | 3.5 | – | – | – | – | 44.7 ± 29.6 | – | IC50 (adult S. mansoni [2]; 48 h): 3.3 µM; IC50 (adult S. mansoni [4]; 24 h): 23.6 µM; IC50 (adult S. mansoni [4]; 48 h): 19.1 µM; IC50 (adult S. mansoni [4]; 72 h): 15.9 µM; inhibition in vivo at 200 mg/kg (S. mansoni; [11]): 3.2% |
| Cc1ccc(C(=O)N(CCCN)[C@@H](c2nc3cc(Cl)ccc3c(=O)n2Cc2ccccc2)C(C)C)cc1 [MMV690646, Ispinesib] | – | 0.2 | 3.7 | – | 3 | 1.1 | – | 32 | 33.6 | – | – | 122 | death of treated mice [5]: died prematurely; also recorded: death of the mice |
| CC#CC(=O)Nc1ccc2ncnc(Nc3cccc(Br)c3)c2c1 [MMV690684] | – | 7 | 4.9 | 4.7 | 4 | 3.1 | 7 | 76.8 | 7.7 | 10 | 41.5 ± 16.5 | 14.4 | – |
| CNCc1ccc(C)c(NC(=O)c2ccc(Nc3nc(-c4ccccc4)c4ccccc4n3)cc2)c1 [MMV690732] | – | 1.9 | 4.9 | 2.9 | 29.5 | 6.3 | 2.3 | 62.8 | 54.1 | 0 | 47.5 ± 24.3 | 181 | – |
| CCOc1cc2ncc(C#N)c(Nc3ccc(F)c(Cl)c3)c2cc1NC(=O)/C=C/CN(C)C [MMV690765, Pelitinib] | – | 0.7 | 4.2 | 3.4 | 914 | > 1 | 11.8 | 652 | 124 | 0 | 84.0 ± 56.4 | 226 | – |
| CC[C@@H]1C(=O)N(C)c2cnc(Nc3ccc(C(=O)NC4CCN(C)CC4)cc3OC)nc2N1C1CCCC1 [MMV690787] | – | 0.1 | – | – | – | – | – | – | – | 0 | 48.3 ± 21.6 | – | – |
